According to US6569881B1, “Substituted benzimidazole, the production thereof and the use thereof as means against parasitic protozoa” (Bayer Aktiengesellschaft, priority 1999, dated 2003):

Experiments:
Format in all cases: in vivo, chicken chicks
[1] = tested on: Eimeria acervulina, Eimeria maxima and Eimeria tenella; test: Cage experiments coccidiosis/chicks, mixed experimental infection
Description: (§1) The efficacy of the compounds according to the invention can be confirmed, for example, in cage experiments using the following experimental arrangement, in which the animals are treated with the respective individual components and with the mixtures of the individual components.
(§2) An active compound-containing feed is prepared in such a way that the required amount of active compound is thoroughly mixed with a nutritionally balanced animal feed, e.g. with the chick feed indicated below.
(§3) 8 to 12 day-old male chicken chicks raised under coccidea-free conditions (e.g. LSL Brinkschulte/Senden) receive the compounds according to the invention (test substances) from 3 days before (day -3) the infection (=a.i.) until 8 (9) days after the infection (=p.i.) with the feed in the concentration indicated in ppm. Three animals are kept in each cage. Per dose, one to a number of groups of this type are employed. Infection is carried out by means of a stomach tube directly into the crop using approximately 100,000 sporulated oocysts of Eimeria acervulina and with in each case approximately 30,000 oocysts of E. maxima and 40,000 sporulated oocysts of E. tenella. These are highly virulent strains. The exact infectious dose is adjusted such that if possible one of three experimentally infected untreated chicks dies due to infection. For the assessment of the efficacy, the following criteria are taken into consideration: weight increase from the start of the experiment to the end of the experiment, death rate due to infection, macroscopic assessment of the faeces with respect to diarrhoea and excretion of blood on days 5 and 7 p.i. (grade 0 to 6), macroscopic grade of the intestinal mucous membrane, in particular of the cecums (grade 0 to 6) and the oocyst excretion and also the proportion (in %) of the oocysts sporulating within 24 hours. The number of oocysts in the faeces was determined with the aid of the McMaster counting chamber (see Engelbrecht and coworkers “Parasitologische Arbeitsmethoden in Medizin und Veterinärmedizin, [Parasitological working methods in medicine and veterinary medicine] Akademie-Verlag, Berlin (1965)). The individual findings are related to the untreated noninfected control groups and an overall grade is calculated (cf. A. Haberkorn (1986), pp. 263 to 270 in Research in Avian Coccidiosis ed L. R. McDougald, L. P. Joyner, P. L. Long Proceedings of the Georgia Coccidiosis Conference Nov, 18-20, 1985 Athens/Ga. USA).
In the column “ppm”, the concentration of the active compound employed in the feed is indicated in ppm.
In the column “mortality”, the percentage of the animals which have died is indicated under % and the number of the animals which have died/animals employed in the experiment is indicated under n.
In the column “weight % of not inf. control”, the ratio of the weight of the treated animals to the weight of the noninfected control group is indicated.
(§4) In the columns “dropping scores”, “lesion score” and “oocyst control”, individual details of the action are given.
In the column “% efficacy”, the overall rating is assessed; 0% means no action, 100% means complete action.

Eimeria maxima = test: Cage experiments coccidiosis/chicks, Eimeria maxima part of the mixed infection; details: for Efficacy against Eimeria maxima (grade): second symbol of cell; on Efficacy against Eimeria maxima (grade): key: 2 = complete action; 1 = weak action; 0 = inactive; D = death
Description: as §1, §2, §3, §4

Eimeria acervulina = test: Cage experiments coccidiosis/chicks, Eimeria acervulina part of the mixed infection; details: for Efficacy against Eimeria acervulina (grade): first symbol of cell; on Efficacy against Eimeria acervulina (grade): key: 2 = complete action; 1 = weak action; 0 = inactive; D = death
Description: as §1, §2, §3, §4

Eimeria tenella = test: Cage experiments coccidiosis/chicks, Eimeria tenella part of the mixed infection; details: for Efficacy against Eimeria tenella (grade): third symbol of cell; on Efficacy against Eimeria tenella (grade): key: 2 = complete action; 1 = weak action; 0 = inactive; D = death
Description: as §1, §2, §3, §4

[2] = 0 ppm in feed (so in the source)
[3] = 0 ppm in feed (so in the source), grade 0 to 6

SMILES: Cc1oc(=O)oc1Cn1c(C(F)(F)F)nc2c(Cl)cc(C(F)(F)F)cc21 [Example 11]
- % efficacy tot. [1, 2]: 39%
- mortality % [1, 2]: 0%
- mortality n (died/employed) [1, 2]: 0/3
- oocyst in % of inf. control tot. [1, 2]: 34%
- weight % of not inf. control [1, 2]: 52%
- dropping scores [1, 3]: 6
- lesion score [1, 3]: 6
- % efficay tot. ([1]; 5 ppm): 11%
- dropping scores ([1]; 5 ppm): 6
- lesion score ([1]; 5 ppm): 6
- mortality % ([1]; 5 ppm): 33%
- mortality n ([1]; 5 ppm): 1/3
- oocyst in % of inf. control tot. ([1]; 5 ppm): 47 % of inf. control
- weight % of not inf. control ([1]; 5 ppm): 42 % of not inf. control
- % efficacy tot. ([1]; 5 ppm in feed): 0%
- mortality % ([1]; 5 ppm in feed): 66%
- mortality n (died/employed) ([1]; 5 ppm in feed): 2/3
- oocyst in % of inf. control tot. ([1]; 5 ppm in feed): >100%
- weight % of not inf. control ([1]; 5 ppm in feed): 17%
- dropping scores ([1]; 5 ppm in feed, grade 0 to 6): 6
- lesion score ([1]; 5 ppm in feed, grade 0 to 6): 6
- % efficay tot. ([1]; 7.5 ppm): 7%
- dropping scores ([1]; 7.5 ppm): 6
- lesion score ([1]; 7.5 ppm): 6
- mortality % ([1]; 7.5 ppm): 0%
- mortality n ([1]; 7.5 ppm): 0/3
- oocyst in % of inf. control tot. ([1]; 7.5 ppm): 75 % of inf. control
- weight % of not inf. control ([1]; 7.5 ppm): 58 % of not inf. control
- % efficay tot. ([1]; 10 ppm): 22%
- dropping scores ([1]; 10 ppm): 6
- lesion score ([1]; 10 ppm): 6
- mortality % ([1]; 10 ppm): 33%
- mortality n ([1]; 10 ppm): 1/3
- oocyst in % of inf. control tot. ([1]; 10 ppm): 72 % of inf. control
- weight % of not inf. control ([1]; 10 ppm): 41 % of not inf. control
- % efficacy tot. ([1]; 25 ppm in feed): 79%
- mortality % ([1]; 25 ppm in feed): 0%
- mortality n (died/employed) ([1]; 25 ppm in feed): 0/3
- oocyst in % of inf. control tot. ([1]; 25 ppm in feed): 0%
- weight % of not inf. control ([1]; 25 ppm in feed): 67%
- dropping scores ([1]; 25 ppm in feed, grade 0 to 6): 2
- lesion score ([1]; 25 ppm in feed, grade 0 to 6): 0
- oocyst in % of inf. control max. (Eimeria maxima; [2]): 0%
- oocyst in % of inf. control max. (Eimeria maxima; 5 ppm): >100 % of inf. control
- oocyst in % of inf. control max. (Eimeria maxima; 5 ppm in feed): 0%
- oocyst in % of inf. control max. (Eimeria maxima; 7.5 ppm): >100 % of inf. control
- oocyst in % of inf. control max. (Eimeria maxima; 10 ppm): 0 % of inf. control
- oocyst in % of inf. control max. (Eimeria maxima; 25 ppm in feed): 0%
- Efficacy against Eimeria maxima (grade) (Eimeria maxima; Dose 5 ppm): 0
- Efficacy against Eimeria maxima (grade) (Eimeria maxima; Dose 10 ppm): 1
- Efficacy against Eimeria maxima (grade) (Eimeria maxima; Dose 25 ppm): 2
- oocyst in % of inf. control ac. (Eimeria acervulina; [2]): 38%
- oocyst in % of inf. control ac. (Eimeria acervulina; 5 ppm): 19 % of inf. control
- oocyst in % of inf. control ac. (Eimeria acervulina; 5 ppm in feed): >100%
- oocyst in % of inf. control ac. (Eimeria acervulina; 7.5 ppm): 22 % of inf. control
- oocyst in % of inf. control ac. (Eimeria acervulina; 10 ppm): 91 % of inf. control
- oocyst in % of inf. control ac. (Eimeria acervulina; 25 ppm in feed): 0%
- Efficacy against Eimeria acervulina (grade) (Eimeria acervulina; Dose 5 ppm): 0
- Efficacy against Eimeria acervulina (grade) (Eimeria acervulina; Dose 10 ppm): 1
- Efficacy against Eimeria acervulina (grade) (Eimeria acervulina; Dose 25 ppm): 2
- oocyst in % of inf. control ten. (Eimeria tenella; [2]): 27%
- oocyst in % of inf. control ten. (Eimeria tenella; 5 ppm): 91 % of inf. control
- oocyst in % of inf. control ten. (Eimeria tenella; 5 ppm in feed): >100%
- oocyst in % of inf. control ten. (Eimeria tenella; 7.5 ppm): >100 % of inf. control
- oocyst in % of inf. control ten. (Eimeria tenella; 10 ppm): 44 % of inf. control
- oocyst in % of inf. control ten. (Eimeria tenella; 25 ppm in feed): 0%
- Efficacy against Eimeria tenella (grade) (Eimeria tenella; Dose 5 ppm): 0
- Efficacy against Eimeria tenella (grade) (Eimeria tenella; Dose 10 ppm): 1
- Efficacy against Eimeria tenella (grade) (Eimeria tenella; Dose 25 ppm): 2
